Results on 14 compounds are retold here after article PMC5599507 (Scientific Reports, 2017).

Where two headings read alike, the source gives them in different places. Where only a bound is given, the exact number is not on record here.

One data set has as its target T1, NR1/NR2A NMDAR (Homo sapiens, UniProt Q05586+Q12879).
T1 construct: cDNAs for the GRIN1 (NM_007327), GRIN2A (NM_000833.3), GRIN2B (NM_000834.3) and Kir2.1 (NM_000891.2) proteins were purchased from GeneCopoeia; expressed in transfected cells; host or cells: HEK293 cells (ATCC) transduced with BacMam baculovirus (pFastBac-CMV-GW-DEST); virus made in Sf9
In words: NMDAR-mediated calcium flux assay, NR1/NR2A-transduced HEK293 cells. The data set is classed as cell-based. The note with it: for EC50: MDL105,519-protected cells after washout, read-out: EC50 of activation of NMDAR-mediated calcium flux; for effect on NMDAR activity at saturating concentrations of ligand: saturating concentrations of both ligands; for potentiation of NMDAR activity at submaximal ligand concentration: submaximal (EC30) D-serine or glutamate; for ligand-induced NMDAR-mediated calcium influx after protection with the compound and washout: cells cultured 16 h with compound, washed, stimulated with glycine/glutamate; for glutamate concentration dependence of inhibitor potency: CGP070667-protected cells.

The test system of another data set is NR1/NR2A-H44A/E226A. Kind of data set: NMDAR-mediated calcium flux assay, NR1/NR2A-H44A/E226A mutant in HEK293 cells. The note with it: at the EC50 of D-serine. On the technique in general: A change in cytosolic calcium serves as a functional read-out for many receptors and channels.
In another data set the target is T2, NR1/NR2A-V783F (Homo sapiens, UniProt Q05586+Q12879, V783F).
T2 construct: cDNAs for the GRIN1 (NM_007327), GRIN2A (NM_000833.3), GRIN2B (NM_000834.3) and Kir2.1 (NM_000891.2) proteins were purchased from GeneCopoeia; expressed in transfected cells; host or cells: HEK293 cells transduced with BacMam baculovirus
Kind of data set: NMDAR-mediated calcium flux assay, NR1/NR2A-V783F mutant in HEK293 cells. It counts as cell-based. The note with it: MDL105,519-protected cells.

The target in a further data set is T3, NR1/NR2B NMDAR (Homo sapiens, UniProt Q05586+Q13224).
T3 construct: cDNAs for the GRIN1 (NM_007327), GRIN2A (NM_000833.3), GRIN2B (NM_000834.3) and Kir2.1 (NM_000891.2) proteins were purchased from GeneCopoeia; expressed in transfected cells; host or cells: HEK293 cells (ATCC) transduced with BacMam baculovirus (pFastBac-CMV-GW-DEST)
Kind of data set: NMDAR-mediated calcium flux assay, NR1/NR2B-transduced HEK293 cells. The data set is classed as cell-based.

The subject of data set [1] is NR1/2A-transduced HEK293 cells. Kind of data set: Cell viability (CellTiterGlo) of NR1/2A-transduced HEK293 cells, protection from excitotoxicity. The data set is classed as cell-based, human. The protocol: (§1) Cell viability was assessed Cell Titer Glo (Promega) and measured on an Envision plate reader (PerkinElmer).
(In general: ATP-based viability assays read luminescence as a measure of living cells.)

Another data set has as its system HEK293 cells. Kind of data set: Cell viability (CellTiterGlo) of HEK293 cells, toxicity of the compound itself. The data set is classed as cell-based, human. As to conditions: 16 h treatment. The protocol:
as §1

Where [2] appears, read: 16 h after transduction with concurrent treatment.
The mark [3] stands for this setting: HEK293 cells after protection with MDL105,519, stimulation with EC80 of both ligands, mean, n > 3, n.d. = not detectable, read-out: IC50 NR2A.
[4] abbreviates: HEK293 cells after protection with MDL105,519, stimulation with EC80 of both ligands, mean, n > 3, n.d. = not detectable, read-out: IC50 NR2B.

T3 sequence (Q13224 27-1484, other chains not shown): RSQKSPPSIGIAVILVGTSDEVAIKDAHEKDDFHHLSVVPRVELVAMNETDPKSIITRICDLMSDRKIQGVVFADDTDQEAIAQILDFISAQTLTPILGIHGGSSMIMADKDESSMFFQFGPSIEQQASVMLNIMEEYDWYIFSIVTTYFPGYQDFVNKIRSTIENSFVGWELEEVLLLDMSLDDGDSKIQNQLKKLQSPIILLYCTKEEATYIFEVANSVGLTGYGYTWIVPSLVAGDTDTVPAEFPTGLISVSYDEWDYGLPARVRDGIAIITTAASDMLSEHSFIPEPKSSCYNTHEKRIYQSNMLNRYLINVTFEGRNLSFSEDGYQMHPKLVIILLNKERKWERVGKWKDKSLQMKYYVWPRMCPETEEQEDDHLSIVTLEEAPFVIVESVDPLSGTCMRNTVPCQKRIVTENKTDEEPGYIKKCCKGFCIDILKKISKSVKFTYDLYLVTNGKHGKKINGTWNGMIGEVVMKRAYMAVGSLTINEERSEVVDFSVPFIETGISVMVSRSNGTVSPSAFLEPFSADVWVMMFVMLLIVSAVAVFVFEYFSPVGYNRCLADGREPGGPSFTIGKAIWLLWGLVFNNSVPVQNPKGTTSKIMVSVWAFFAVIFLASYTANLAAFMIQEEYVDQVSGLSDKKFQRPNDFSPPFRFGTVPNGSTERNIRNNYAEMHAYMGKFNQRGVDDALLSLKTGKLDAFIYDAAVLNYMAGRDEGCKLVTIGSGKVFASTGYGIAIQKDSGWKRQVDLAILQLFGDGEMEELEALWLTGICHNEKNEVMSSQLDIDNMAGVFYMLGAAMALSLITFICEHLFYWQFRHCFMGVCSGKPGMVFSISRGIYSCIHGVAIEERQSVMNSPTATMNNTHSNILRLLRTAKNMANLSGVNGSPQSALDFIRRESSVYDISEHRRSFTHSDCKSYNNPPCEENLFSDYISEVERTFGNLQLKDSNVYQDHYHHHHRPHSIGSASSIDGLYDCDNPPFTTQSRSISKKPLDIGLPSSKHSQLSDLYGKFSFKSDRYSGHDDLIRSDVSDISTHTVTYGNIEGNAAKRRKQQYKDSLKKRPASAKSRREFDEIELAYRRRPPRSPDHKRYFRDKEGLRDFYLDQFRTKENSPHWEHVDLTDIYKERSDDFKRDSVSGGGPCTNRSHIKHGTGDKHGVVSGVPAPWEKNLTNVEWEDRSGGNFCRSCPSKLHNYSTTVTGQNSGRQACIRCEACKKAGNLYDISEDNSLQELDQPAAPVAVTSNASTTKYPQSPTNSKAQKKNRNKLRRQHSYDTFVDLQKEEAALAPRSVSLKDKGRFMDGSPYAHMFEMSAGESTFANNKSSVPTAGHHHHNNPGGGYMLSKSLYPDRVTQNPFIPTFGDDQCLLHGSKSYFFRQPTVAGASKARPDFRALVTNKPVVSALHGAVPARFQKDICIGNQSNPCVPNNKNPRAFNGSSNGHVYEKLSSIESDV
T1 sequence (Q12879 23-1464, other chains not shown): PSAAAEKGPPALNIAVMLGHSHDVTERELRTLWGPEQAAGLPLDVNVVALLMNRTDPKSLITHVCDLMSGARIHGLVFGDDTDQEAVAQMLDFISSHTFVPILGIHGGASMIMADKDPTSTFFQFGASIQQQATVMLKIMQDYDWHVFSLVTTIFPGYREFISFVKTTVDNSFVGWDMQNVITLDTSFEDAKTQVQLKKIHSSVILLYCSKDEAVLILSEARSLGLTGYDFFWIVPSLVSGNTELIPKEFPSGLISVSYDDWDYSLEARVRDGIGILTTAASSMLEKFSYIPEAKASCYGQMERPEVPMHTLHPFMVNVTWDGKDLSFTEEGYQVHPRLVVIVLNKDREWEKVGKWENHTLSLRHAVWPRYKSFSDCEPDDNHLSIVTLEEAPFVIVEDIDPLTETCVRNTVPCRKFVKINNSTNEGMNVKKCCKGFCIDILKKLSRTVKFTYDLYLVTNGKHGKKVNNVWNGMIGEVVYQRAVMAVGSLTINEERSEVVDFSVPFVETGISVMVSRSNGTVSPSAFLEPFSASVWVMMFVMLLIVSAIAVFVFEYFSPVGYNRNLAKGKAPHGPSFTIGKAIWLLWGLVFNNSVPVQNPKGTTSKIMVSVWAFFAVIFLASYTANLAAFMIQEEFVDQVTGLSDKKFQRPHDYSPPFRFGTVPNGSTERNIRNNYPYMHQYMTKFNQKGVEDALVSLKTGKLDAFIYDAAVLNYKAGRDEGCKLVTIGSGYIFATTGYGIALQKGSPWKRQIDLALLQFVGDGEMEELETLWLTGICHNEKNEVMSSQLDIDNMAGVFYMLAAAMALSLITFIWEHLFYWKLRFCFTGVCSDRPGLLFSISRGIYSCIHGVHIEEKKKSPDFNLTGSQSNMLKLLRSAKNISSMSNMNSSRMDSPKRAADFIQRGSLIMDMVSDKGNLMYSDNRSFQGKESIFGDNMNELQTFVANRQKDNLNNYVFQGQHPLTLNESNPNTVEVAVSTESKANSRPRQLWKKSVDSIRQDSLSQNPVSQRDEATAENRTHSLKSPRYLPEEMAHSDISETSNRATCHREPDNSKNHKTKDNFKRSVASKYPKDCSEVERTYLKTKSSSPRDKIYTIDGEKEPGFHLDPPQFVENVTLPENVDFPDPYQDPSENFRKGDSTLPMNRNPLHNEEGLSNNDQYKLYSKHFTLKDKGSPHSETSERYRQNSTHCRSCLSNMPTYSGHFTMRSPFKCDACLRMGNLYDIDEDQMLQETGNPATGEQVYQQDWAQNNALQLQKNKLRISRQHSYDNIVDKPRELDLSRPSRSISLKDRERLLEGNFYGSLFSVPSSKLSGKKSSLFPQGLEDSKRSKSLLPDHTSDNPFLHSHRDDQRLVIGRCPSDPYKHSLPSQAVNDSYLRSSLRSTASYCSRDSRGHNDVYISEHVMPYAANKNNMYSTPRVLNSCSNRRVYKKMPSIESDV
T2 sequence (Q12879 23-1464 V783F, other chains not shown): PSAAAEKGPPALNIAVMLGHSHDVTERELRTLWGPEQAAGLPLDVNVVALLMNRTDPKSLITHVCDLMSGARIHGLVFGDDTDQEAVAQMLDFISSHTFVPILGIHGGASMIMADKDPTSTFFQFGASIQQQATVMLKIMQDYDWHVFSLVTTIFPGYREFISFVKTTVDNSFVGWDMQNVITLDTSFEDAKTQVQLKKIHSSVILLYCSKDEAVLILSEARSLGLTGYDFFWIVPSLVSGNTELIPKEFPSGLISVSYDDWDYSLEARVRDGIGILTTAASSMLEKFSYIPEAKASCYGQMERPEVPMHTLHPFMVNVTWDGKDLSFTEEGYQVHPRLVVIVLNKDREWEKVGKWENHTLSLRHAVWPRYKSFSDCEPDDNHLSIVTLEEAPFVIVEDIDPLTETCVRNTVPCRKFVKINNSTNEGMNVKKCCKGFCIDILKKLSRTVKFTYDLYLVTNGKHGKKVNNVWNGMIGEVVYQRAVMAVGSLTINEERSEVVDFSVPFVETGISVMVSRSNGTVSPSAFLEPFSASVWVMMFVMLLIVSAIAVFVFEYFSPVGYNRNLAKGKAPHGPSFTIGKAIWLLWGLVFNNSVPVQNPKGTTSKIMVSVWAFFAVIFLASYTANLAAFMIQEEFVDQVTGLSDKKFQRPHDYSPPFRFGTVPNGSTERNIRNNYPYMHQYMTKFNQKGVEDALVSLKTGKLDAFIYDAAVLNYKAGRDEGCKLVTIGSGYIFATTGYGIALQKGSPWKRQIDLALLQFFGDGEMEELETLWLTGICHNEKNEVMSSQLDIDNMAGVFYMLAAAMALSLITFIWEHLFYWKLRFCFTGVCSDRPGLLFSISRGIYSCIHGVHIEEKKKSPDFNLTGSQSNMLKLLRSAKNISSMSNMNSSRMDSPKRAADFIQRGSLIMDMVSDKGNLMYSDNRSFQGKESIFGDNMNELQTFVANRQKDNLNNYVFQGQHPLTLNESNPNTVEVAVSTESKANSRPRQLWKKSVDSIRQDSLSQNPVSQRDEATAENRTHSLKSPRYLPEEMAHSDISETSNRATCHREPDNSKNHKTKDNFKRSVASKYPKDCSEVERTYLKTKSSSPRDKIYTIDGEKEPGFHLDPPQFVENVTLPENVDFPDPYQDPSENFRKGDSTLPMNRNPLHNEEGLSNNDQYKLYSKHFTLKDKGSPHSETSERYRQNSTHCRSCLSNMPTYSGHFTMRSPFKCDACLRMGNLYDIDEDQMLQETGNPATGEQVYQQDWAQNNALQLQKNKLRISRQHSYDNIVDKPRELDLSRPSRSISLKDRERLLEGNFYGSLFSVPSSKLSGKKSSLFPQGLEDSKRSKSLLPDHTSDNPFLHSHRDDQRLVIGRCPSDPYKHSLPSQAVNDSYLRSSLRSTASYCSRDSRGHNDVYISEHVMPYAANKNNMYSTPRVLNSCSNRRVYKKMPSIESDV
Procedure for NR1/NR2A NMDAR: (§2) 10^4 cells per 384-well were infected with baculovirus in suspension, seeded into a clear bottom, poly-D-lysine treated 384-well plate (Corning) and treated with the indicated concentrations of protection compound (100 µM MDL105,519 or 5 µM CGP070667). 16 h after transduction, cell medium was replaced with calcium6-dye (Molecular Devices, R8192) in incubation buffer (HBSS pH 7.5, 20 mM HEPES, 1 mM MgCl2, 1 mM probenecid) and cells were incubated at 37 °C for 2 h. […] In the beginning of each experiment baseline fluorescence (F0) was measure for 5–30 sec. For compound treatment, 10 µl of a 4× stock of compound diluted in assay buffer was added on the FDSS (speed 20 µl/s, tip height 1.8 mm) fluorescence was measured for 5 min (interval 1) before adding 10 µl of a 5× stock of ligand diluted in assay buffer and measurement of fluorescence for 5 min (interval 2). For single addition experiments, the maximal fluorescence ratio was calculated by dividing the maximal fluorescence in interval 1 by the average baseline fluorescence (Fmax/F0). For experiments requiring two additions, the integral of the fluorescence ratio was determined by calculating the area under the curve of the fluorescent ratios in interval 2. Data was analyzed as indicated and was normalized to controls located on the same plate.
Procedure for NR1/NR2A-H44A/E226A: as §2
Procedure for NR1/NR2A-V783F: 16 h after transduction, cell medium was replaced with calcium6-dye (Molecular Devices, R8192) in incubation buffer (HBSS pH 7.5, 20 mM HEPES, 1 mM MgCl2, 1 mM probenecid) and cells were incubated at 37 °C for 2 h. Before measurement, the dye-solution was replaced with 30 ul assay buffer (HBSS pH 7.5, 20 mM HEPES, 1.8 mM CaCl2). Cells were allowed to rest for 10 min at room temperature before measuring calcium flux on a FDSS7000 plate reader (Hamamatsu) with the following settings: 1 sec measurement interval, 200 ms exposure time, 2 × 2 binning, Ex480 nm:Em540 nm, sensitivity 1–3. In the beginning of each experiment baseline fluorescence (F0) was measure for 5–30 sec. For compound treatment, 10 µl of a 4× stock of compound diluted in assay buffer was added on the FDSS (speed 20 µl/s, tip height 1.8 mm) fluorescence was measured for 5 min (interval 1) before adding 10 µl of a 5× stock of ligand diluted in assay buffer and measurement of fluorescence for 5 min (interval 2). For single addition experiments, the maximal fluorescence ratio was calculated by dividing the maximal fluorescence in interval 1 by the average baseline fluorescence (Fmax/F0). For experiments requiring two additions, the integral of the fluorescence ratio was determined by calculating the area under the curve of the fluorescent ratios in interval 2. […]
Procedure for NR1/NR2B NMDAR: 16 h after transduction, cell medium was replaced with calcium6-dye (Molecular Devices, R8192) in incubation buffer (HBSS pH 7.5, 20 mM HEPES, 1 mM MgCl2, 1 mM probenecid) and cells were incubated at 37 °C for 2 h. Before measurement, the dye-solution was replaced with 30 ul assay buffer (HBSS pH 7.5, 20 mM HEPES, 1.8 mM CaCl2). Cells were allowed to rest for 10 min at room temperature before measuring calcium flux on a FDSS7000 plate reader (Hamamatsu) with the following settings: 1 sec measurement interval, 200 ms exposure time, 2 × 2 binning, Ex480 nm:Em540 nm, sensitivity 1–3. In the beginning of each experiment baseline fluorescence (F0) was measure for 5–30 sec. For compound treatment, 10 µl of a 4× stock of compound diluted in assay buffer was added on the FDSS (speed 20 µl/s, tip height 1.8 mm) fluorescence was measured for 5 min (interval 1) before adding 10 µl of a 5× stock of ligand diluted in assay buffer and measurement of fluorescence for 5 min (interval 2). For single addition experiments, the maximal fluorescence ratio was calculated by dividing the maximal fluorescence in interval 1 by the average baseline fluorescence (Fmax/F0). For experiments requiring two additions, the integral of the fluorescence ratio was determined by calculating the area under the curve of the fluorescent ratios in interval 2. Data was analyzed as indicated and was normalized to controls located on the same plate.

For `N[C@H](CO)C(=O)O` [D-serine], the EC50 (in general, the concentration giving half of the maximal effect) on NR1/NR2A NMDAR was about 9000 nM.

For the compound `O=C(O)CN(CCN(CC(=O)O)CC(=O)O)CC(=O)O` [EDTA], in the data set on NR1/NR2A-H44A/E226A (compared to wildtype NR2A), the “sensitivity of the double mutant to activation” value is “less sensitive”.

As to `CCN(Cc1cc(=O)n2c3c(sc2n1)CCC3)c1ccc(F)cc1` [GNE-8324], at NR1/NR2A-V783F, the “sensitivity of NR1/2A-V783F to the compound” value is listed as “complete loss of sensitivity”. Moreover, on NR1/NR2A NMDAR, the “effect on NMDAR activity at saturating concentrations of ligand” value was “enhanced NMDAR activity” and the “potentiation of NMDAR activity at submaximal ligand concentration” value is given as “concentration-dependent potentiation”. In addition, the “effect on NR1/2B-mediated calcium flux” value on NR1/NR2B NMDAR was “no effect”.

`CNC1(c2ccccc2Cl)CCCCC1=O` (stereo not shown) [Ketamine]: in data set [1] (setting [2]), the “protection from NMDAR-mediated excitotoxicity (cell viability)” value (“protection … (cell viability)” for short) is reported as “could be rescued”. The IC50 on NR1/NR2A NMDAR stood at 23000 nM; at NR1/NR2B NMDAR, 12100 nM. Moreover, the “ligand-induced NMDAR-mediated calcium influx after protection with the compound and washout” value at NR1/NR2A NMDAR is “did not observe significant ligand-induced NMDAR-mediated calcium influx”. Further, in the data set with HEK293 cells, the “toxic effect on HEK293 cells” value was “dose-dependent toxic effect”.

On to `O=c1[nH]c2cc(Cl)ccc2c(O)c1-c1cccc(Oc2ccccc2)c1` [L701,324], for which the IC50 on NR1/NR2A NMDAR (setting [3]) came to 1450 nM; on NR1/NR2B NMDAR (setting [4]), 1910 nM.

For the compound `N[C@@H](CO)C(=O)O` [L-serine], at NR1/NR2A NMDAR (MDL105,519-protected cells, saturating glutamate), the “right shift in potency as compared to D-serine” value was ~ 200 fold.

As to `O=C(O)C(=Cc1c(C(=O)O)[nH]c2cc(Cl)cc(Cl)c12)c1ccccc1` [MDL105,519], the “protection … (cell viability)” value in data set [1] (setting [2]) is recorded as “dose-dependent rescue of cell viability”. The “cell viability compared to non-transduced cells” value in data set [1] (overnight (16 h) treatment of NR1/2A-transduced cells, screen of 120 compounds) was over 70%. Moreover, at NR1/NR2A NMDAR, the “glutamate concentration dependence of inhibitor potency” value is “only minor effects”; the “ligand-induced NMDAR-mediated calcium influx after protection with the compound and washout” value is “enabled the largest dynamic range of NMDAR-activity”. The IC50 on NR1/NR2A NMDAR (setting [3]) came out at 620 nM. In addition, the “shift of inhibitor dose response curve, EC100 vs EC20 of D-serine” value on NR1/NR2A NMDAR (MDL105,519-protected cells) is recorded as “right shift”. Also, the IC50 at NR1/NR2B NMDAR (setting [4]) is 1650 nM.

As to `C[C@]12N[C@H](Cc3ccccc31)c1ccccc12` [MK801], the “protection … (cell viability)” value in data set [1] (setting [2]) is recorded as “could be rescued”. For the same compound, on NR1/NR2A NMDAR, the “glutamate concentration dependence of inhibitor potency” value is given as “only minor effects”; the “ligand-induced NMDAR-mediated calcium influx after protection with the compound and washout” value is reported as “did not observe significant ligand-induced NMDAR-mediated calcium influx”. For the same compound, the “change of signal on NMDAR block in the absence of ligand (basal activity)” value on NR1/NR2A NMDAR (after washout of MDL105,519, no ligand) is reported as “only a weak decrease of signal”. Further, the IC50 at NR1/NR2B NMDAR (setting [4]) is 150 nM.

Regarding `[Cl-].[Cl-].[Mg+2]` [MgCl2, magnesium chloride], in data set [1] (setting [2]), the “concentration giving partial rescue of cell viability” value is over 10 mM and the “protection … (cell viability)” value is recorded as “partial rescue”. On NR1/NR2A NMDAR (co-transduction with Kir2.1 (KCNJ2), MDL105,519-protected cells), the “sensitivity of NR1/NR2A to inhibition with increasing Kir2.1 baculovirus titer” value is reported as “increased sensitivity”.

Regarding `C[C@H](NC(c1cccc2[nH]c(=O)c(=O)[nH]c12)P(=O)(O)O)c1ccc(Br)cc1` (stereo partly shown) [NVP-AAM077], the IC50 worked out at 2460 nM at NR1/NR2A NMDAR (setting [3]) and 11900 nM at NR1/NR2B NMDAR (setting [4]).

`C[C@@H](CN1CCC(Cc2ccccc2)CC1)[C@@H](O)c1ccc(O)cc1` [RO25-6981]: the IC50 at NR1/NR2B NMDAR (setting [4]) came to 100 nM.

With `NCC(=O)O` [glycine], at NR1/NR2A NMDAR (CGP070667-protected cells after washout), the “sensitivity of NMDAR-mediated calcium flux to ligand” value is listed as “insensitivity”. Moreover, the EC50 on NR1/NR2A NMDAR was about 12000 nM.

As to `[Zn+2]` [zinc], the IC50 in the data set on NR1/NR2A-H44A/E226A (read-out: IC50 for zinc, NR2A-H44A/E226A double mutant, MDL105,519-protected cells) is over 10000 nM; on NR1/NR2A NMDAR (MDL105,519-protected cells, at the EC50 of D-serine, read-out: IC50 for zinc, wildtype receptor), about 100 nM.

pregnenolone sulfate [PS]: the “effect on NMDAR activity at saturating concentrations of ligand” value on NR1/NR2A NMDAR and at NR1/NR2B NMDAR (saturating concentrations of both ligands) was “supramaximal activation” in each case. The “potentiation of NMDAR activity at submaximal ligand concentration” value at NR1/NR2A NMDAR and on NR1/NR2B NMDAR (submaximal (EC30) D-serine or glutamate) was “enhanced NMDAR activity” throughout.
